Laboratory results reported in US9868719B2, “Compounds with pesticidal activity” (BAYER CROPSCIENCE AKTIENGESELLSCHAFT, priority 2013, dated 2018).
Where two headings read alike, the source gives them in different places. Each block holds one compound with its values, some of them ahead of it.

Assays:
[1] = tested on: Cooperia curticei; assay: microbe, parasite or virus in culture; conditions: 120 h, read-out: activity (larval mortality)
Method: Cooperia curticei-Test (COOPCU)
(§1) Solvent: dimethyl sulfoxide
(§2) To produce a suitable preparation of active compound, 10 mg of active compound are dissolved in 0.5 ml solvent, and the concentrate is diluted with “Ringer's solution” to the desired concentration.
Approximately 40 nematode larvae (Cooperia curticei) are transferred into a test tube containing the compound solution.
After 5 days percentage of larval mortality is recorded, 100% efficacy means all larvae are killed; 0% efficacy means no larvae are killed.

[2] = tested on: Haemonchus contortus; assay: Haemonchus contortus-Test (HAEMCO), larval mortality; conditions: 120 h, read-out: activity (larval mortality)
Method: Haemonchus contortus-Test (HAEMCO)
as §1, §2
Approximately 40 larvae of the red stomach worm (Haemonchus contortus) are transferred into a test tube containing compound solution.
After 5 days percentage of larval mortality are recorded, 100% efficacy means all larvae are killed, 0% efficacy means no larvae are killed.

[3] = tested on: Meloidogyne incognita; assay: Meloidogyne incognita-Test, gall formation on salad seedlings; assay type: in vivo; conditions: 336 h, read-out: nematicidal activity (on the basis of gall formation)
Method: Meloidogyne incognita-Test
Solvent: 125.0 parts by weight of acetone
To produce a suitable preparation of active compound, 1 part by weight of active compound is mixed with the stated amount of solvent, and the concentrate is diluted with water to the desired concentration.
Vessels are filled with sand, a solution of the active ingredient, a suspension containing eggs and larvae of the southern root-knot nematode (Meloidogyne incognita) and salad seeds. The salad seeds germinate and the seedlings grow. Galls develop in the roots.
After 14 days the nematicidal activity is determined on the basis of the percentage of gall formation. 100% means no galls were found and 0% means the number of galls found on the roots of the treated plants was equal to that in untreated control plants.

[4] = physchem
[5] = tested on: Nippostrongylus brasiliensis; assay: Nippostrongylus brasiliensis-Test (NIPOBR), in vitro efficacy, acetylcholine esterase readout; conditions: 10 μg/ml, read-out: activity (reduction of AChe compared to negative control)
Method: Nippostrongylus brasiliensis-Test (NIPOBR) (In Vitro Efficacy Test)
Adult Nippostrongylus brasiliensis were washed with saline buffer containing 100 U/ml penicillin, 0.1 mg/ml streptomycin and 2.5 μg/ml amphotericin B. Test compounds were dissolved in DMSO, and worms were incubated in medium in a final concentration of 10 μg/ml. An aliquot of the medium was used to determine the acetylcholine esterase activity in comparison to a negative control. The principle of measuring acetylcholine esterase as readout for anthelmintic activity was described in Rapson et al (1986) and Rapson et al (1987).

[6] = logP; conditions: for chromatographic logP: HCOOH (formic acid)

Structure (SMILES): O=C(NCC(F)(F)c1ncc(-c2cncc(Cl)c2)cc1Cl)c1ccccc1C(F)(F)F [Example 15]
- mortality at 20 ppm [1]: 100%
- mortality at 20 ppm [2]: 100%
- pest or weed control at 20 ppm [3]: 90%
- chromatographic logP [4]: 3.17
- inhibition at 10 µg/mL [5]: ≥ 60%

- chromatographic logP [6]: 3.79
Structure (SMILES): Cc1ccc(-c2cnc(C(C)(F)CNC(=O)c3ccccc3C(F)(F)F)c(Cl)c2)cn1 (centres unmarked) [Example 37]

Structure (SMILES): Cc1occc1-c1cnc(C(F)(F)CNC(=O)c2ccccc2C(F)(F)F)c(Cl)c1 [Example 9]
- mortality at 20 ppm [1]: 100%
- mortality at 20 ppm [2]: 90%

Structure (SMILES): O=C(NCC(F)(F)c1ncc(-c2cccnc2Cl)cc1Cl)c1ccccc1C(F)(F)F [Example 14]
- mortality at 20 ppm [1]: 100%
- mortality at 20 ppm [2]: 100%
- pest or weed control at 20 ppm [3]: 1%
- chromatographic logP [4]: 3
- inhibition at 10 µg/mL [5]: ≥ 60%

Structure (SMILES): O=C(NCCc1ncc(-n2ccnc2)cc1Cl)c1ccccc1C(F)(F)F [Example 1]
- mortality at 20 ppm ([1]; 20 ppm, after 5 days): 100%
- mortality at 20 ppm ([2]; 20 ppm, after 5 days): 80%
- chromatographic logP [6]: 1.21

Structure (SMILES): O=C(NCC(F)(F)c1ncc(-c2ccoc2)cc1Cl)c1ccccc1C(F)(F)F [Example 8]
- mortality at 20 ppm [1]: 100%

- chromatographic logP [6]: 1.69
Structure (SMILES): Cc1ccc(-c2cnc(C(C)(F)CNC(=O)c3cccnc3C(F)(F)F)c(Cl)c2)cn1 (centres unmarked) [Example 38]

Structure (SMILES): O=C(NCC(F)(F)c1ncc(-c2ccc(Cl)nc2)cc1Cl)c1ccccc1C(F)(F)F [Example 12]
- mortality at 20 ppm [1]: 100%
- mortality at 20 ppm [2]: 90%
- chromatographic logP [6]: 3.21
- pest or weed control at 20 ppm ([3]; 20 ppm, after 14 days): 90%

- chromatographic logP [6]: 1.86
Structure (SMILES): Cc1ncccc1-c1cnc(C(F)(F)CNC(=O)c2ccccc2C(F)(F)F)c(Cl)c1 [Example 13]
- mortality at 20 ppm ([1]; 20 ppm, after 5 days): 90%
- pest or weed control at 20 ppm ([3]; 20 ppm, after 14 days): 90%

- chromatographic logP [6]: 3.17
Structure (SMILES): CC(F)(CNC(=O)c1cccnc1C(F)(F)F)c1ncc(-c2ccc(C(F)(F)F)nc2)cc1Cl (centres unmarked) [Example 36]

- chromatographic logP [6]: 2.75
Structure (SMILES): O=C(NCC(F)(F)c1ncc(-c2ccc(F)cn2)cc1Cl)c1nccnc1C(F)(F)F [Example 30]

- chromatographic logP [6]: 3.26
Structure (SMILES): CC(F)(CNC(=O)c1ccccc1C(F)(F)F)c1ncc(-c2ccc(Cl)nc2)cc1Cl (centres unmarked) [Example 33]

- chromatographic logP [6]: 2.88
Structure (SMILES): O=C(NCC(F)(F)c1ncc(-c2cnccc2Cl)cc1Cl)c1ccccc1C(F)(F)F [Example 21]
- mortality at 20 ppm [1]: 80%

Structure (SMILES): O=C(NCC(F)(F)c1ncc(-c2cncc(F)c2)cc1Cl)c1ccccc1C(F)(F)F [Example 10]
- mortality at 20 ppm [1]: 100%
- mortality at 20 ppm [2]: 100%
- pest or weed control at 20 ppm [3]: 1%
- chromatographic logP [4]: 2.84
- inhibition at 10 µg/mL [5]: ≥ 60%

Structure (SMILES): O=C(NCC(F)(F)c1ncc(-c2ccnc(F)c2)cc1Cl)c1ccccc1C(F)(F)F [Example 23]
- mortality at 20 ppm [1]: 100%
- mortality at 20 ppm [2]: 100%
- chromatographic logP [6]: 2.96
- pest or weed control at 20 ppm ([3]; 20 ppm, after 14 days): 1%

Structure (SMILES): O=C(NCC(F)(F)c1ncc(-c2ccc(OCC(F)(F)F)nc2)cc1Cl)c1ccccc1C(F)(F)F [Example 20]
- mortality at 20 ppm [1]: 100%
- mortality at 20 ppm [2]: 100%
- chromatographic logP [6]: 3.94
- pest or weed control at 20 ppm ([3]; 20 ppm, after 14 days): 90%

Structure (SMILES): O=C(NCCc1ncc(-n2ccc(C(F)(F)F)n2)cc1Cl)c1ccccc1C(F)(F)F [Example 3]
- mortality at 20 ppm [1]: 100%
- mortality at 20 ppm [2]: 100%
- pest or weed control at 20 ppm [3]: 1%
- chromatographic logP [4]: 3.68
- inhibition at 10 µg/mL [5]: ≥ 60%

Structure (SMILES): CC(C)Oc1ccc(-c2cnc(C(F)(F)CNC(=O)c3ccccc3C(F)(F)F)c(Cl)c2)cn1 [Example 17]
- mortality at 20 ppm [1]: 100%
- mortality at 20 ppm [2]: 90%
- chromatographic logP [6]: 4.15

Structure (SMILES): O=C(NCC(F)(F)c1ncc(-c2ccc(Cl)nc2Cl)cc1Cl)c1ccccc1C(F)(F)F [Example 18]
- mortality at 20 ppm [1]: 100%
- mortality at 20 ppm [2]: 80%
- chromatographic logP [6]: 3.68
- pest or weed control at 20 ppm ([3]; 20 ppm, after 14 days): 1%

Structure (SMILES): O=C(NCC(F)(F)c1ncc(-c2cccnc2)cc1Cl)c1ccccc1C(F)(F)F [Example 19]
- mortality at 20 ppm [1]: 100%
- mortality at 20 ppm [2]: 100%
- chromatographic logP [4]: 2.27
- inhibition at 10 µg/mL [5]: ≥ 60%

- logP [6]: 3.55
Structure (SMILES): CC(F)(CNC(=O)c1ccccc1C(F)(F)F)c1ncc(-c2ccc(C(F)(F)F)nc2)cc1Cl (centres unmarked) [Example 35]

Structure (SMILES): O=C(NCC(F)(F)c1ncc(-c2ccncc2)cc1Cl)c1ccccc1C(F)(F)F [Example 22]
- mortality at 20 ppm [1]: 100%
- mortality at 20 ppm [2]: 90%
- chromatographic logP [6]: 2

- chromatographic logP [6]: 2.57
Structure (SMILES): O=C(NCC(F)(F)c1ncc(-c2ccc(F)cn2)cc1Cl)c1cccnc1C(F)(F)F [Example 29]
- pest or weed control at 20 ppm ([3]; 20 ppm, after 14 days): 1%

- chromatographic logP [6]: 2.99
Structure (SMILES): CC(F)(CNC(=O)c1ccccc1C(F)(F)F)c1ncc(-c2cncc(F)c2)cc1Cl (centres unmarked) [Example 39]

- chromatographic logP [6]: 2.49
Structure (SMILES): CC(F)(CNC(=O)c1cccnc1C(F)(F)F)c1ncc(-c2cncc(F)c2)cc1Cl (centres unmarked) [Example 40]

Structure (SMILES): O=C(NCC(F)(F)c1ncc(-n2cc(C(F)(F)F)cn2)cc1Cl)c1ccccc1C(F)(F)F [Example 28]
- mortality at 20 ppm [1]: 100%
- mortality at 20 ppm [2]: 100%
- pest or weed control at 20 ppm [3]: 1%
- inhibition at 10 µg/mL [5]: ≥ 60%

Structure (SMILES): O=C(NCC(F)(F)c1ncc(-c2cc(Cl)nc(Cl)c2)cc1Cl)c1ccccc1C(F)(F)F [Example 25]
- mortality at 20 ppm [1]: 100%
- mortality at 20 ppm [2]: 100%
- pest or weed control at 20 ppm [3]: 1%
- chromatographic logP [4]: 3.84
- inhibition at 10 µg/mL [5]: ≥ 60%

- chromatographic logP [6]: 3.94
Structure (SMILES): CC(F)(CNC(=O)c1ccccc1C(F)(F)F)c1ncc(-c2ccc(F)nc2)cc1Cl (centres unmarked) [Example 31]

Structure (SMILES): O=C(NCCc1ncc(-n2cccn2)cc1Cl)c1ccccc1C(F)(F)F [Example 4, N-{2-[3-chloro-5-(1H-pyrazol-1-yl)pyridin-2-yl]ethyl}-2-(trifluoromethyl)benzamide]
- mortality at 20 ppm [1]: 100%
- mortality at 20 ppm [2]: 100%
- pest or weed control at 20 ppm [3]: 1%
- chromatographic logP [4]: 2.69
- inhibition at 10 µg/mL [5]: ≥ 60%

Structure (SMILES): O=C(NCC(F)(F)c1ncc(-c2ccnc(Cl)c2)cc1Cl)c1ccccc1C(F)(F)F [Example 24]
- mortality at 20 ppm [1]: 100%
- mortality at 20 ppm [2]: 100%
- chromatographic logP [6]: 3.17
- pest or weed control at 20 ppm ([3]; 20 ppm, after 14 days): 1%

- chromatographic logP [6]: 2.66
Structure (SMILES): CC(F)(CNC(=O)c1cccnc1C(F)(F)F)c1ncc(-c2ccc(F)nc2)cc1Cl (centres unmarked) [Example 32]

Structure (SMILES): O=C(NCCc1ncc(-n2cc(C(F)(F)F)cn2)cc1Cl)c1ccccc1C(F)(F)F [Example 2]
- mortality at 20 ppm [1]: 100%
- mortality at 20 ppm [2]: 100%
- pest or weed control at 20 ppm [3]: 1%
- chromatographic logP [4]: 3.65
- inhibition at 10 µg/mL [5]: ≥ 60%

Structure (SMILES): O=C(NCCc1ncc(-c2ccc(C(F)(F)F)nc2)cc1Cl)c1ccccc1C(F)(F)F [Example 7, N-{2-[5-chloro-6′-(trifluoromethyl)-3,3′-bipyridin-6-yl]ethyl}-2-(trifluoromethyl) benzamide]
- mortality at 20 ppm [1]: 100%
- mortality at 20 ppm [2]: 90%
- chromatographic logP [6]: 3.29
- pest or weed control at 20 ppm ([3]; 20 ppm, after 14 days): 90%

Structure (SMILES): O=C(NCC(F)(F)c1ncc(-c2ccc(C(F)(F)F)nc2)cc1Cl)c1ccccc1C(F)(F)F [Example 11, N-{2-[5-chloro-6′-(trifluoromethyl)-3,3′-bipyridin-6-yl]-2,2-difluoroethyl}-2-(trifluoromethyl) benzamide]
- mortality at 20 ppm [1]: 100%
- mortality at 20 ppm [2]: 90%
- chromatographic logP [6]: 3.42

Structure (SMILES): O=C(NCCc1ncc(-n2cncn2)cc1Cl)c1ccccc1C(F)(F)F [Example 5]
- mortality at 20 ppm [2]: 90%
- chromatographic logP [6]: 2.06
- pest or weed control at 20 ppm ([3]; 20 ppm, after 14 days): 1%

- chromatographic logP [6]: 1.97
Structure (SMILES): CN(C)c1ccc(-c2cnc(C(F)(F)CNC(=O)c3ccccc3C(F)(F)F)c(Cl)c2)cn1 [Example 42]

Structure (SMILES): O=C(NCC(F)(F)c1ncc(-c2ccc(F)nc2)cc1Cl)c1ccccc1C(F)(F)F [Example 16]
- mortality at 20 ppm [1]: 100%
- mortality at 20 ppm [2]: 100%
- pest or weed control at 20 ppm [3]: 1%
- chromatographic logP [4]: 3.02
- inhibition at 10 µg/mL [5]: ≥ 60%

- chromatographic logP [6]: 3.28
Structure (SMILES): O=C(NCC(F)(F)c1ncc(-c2cc(F)c(F)cn2)cc1Cl)c1ccccc1C(F)(F)F [Example 41]

Structure (SMILES): O=C(NCCc1ncc(-c2ccc(Cl)nc2)cc1Cl)c1ccccc1C(F)(F)F [Example 6]
- mortality at 20 ppm [1]: 100%
- mortality at 20 ppm [2]: 100%
- chromatographic logP [6]: 3
- pest or weed control at 20 ppm ([3]; 20 ppm, after 14 days): 1%
